In brackets after ≈: the same amount, converted by molar mass. Read-outs that look alike come from different tables or passages of the source.
Legend:
purified human FAS = biological target: T1, purified human FAS (Homo sapiens, UniProt P49327); assay: Measurement of FAS enzymatic activity (malonyl-CoA dependent NADPH oxidation); assay type: biochemical
T1 construct: Human FAS was purified from cultured ZR-75-1 human breast cancer cells obtained from the American Type Culture Collection; endogenous in cells; host or cells: ZR-75-1 human breast cancer cells (ATCC); PEG precipitations and Mono Q anion exchange
Procedure: Human FAS was purified from cultured ZR-75-1 human breast cancer cells obtained from the American Type Culture Collection. The procedure, adapted from Linn et al., 1981, and Kuhajda et al., 1994, utilizes hypotonic lysis, successive polyethyleneglycol (PEG) precipitations, and anion exchange chromatography. ZR-75-1 cells are cultured at 37° C. with 5% CO2 in RPMI culture medium with 10% fetal bovine serum, penicillin and streptomycin.
Ten T150 flasks of confluent cells are lysed with 1.5 ml lysis buffer (20 mM Tris-HCl, pH 7.5, 1 mM EDTA, 0.1 mM phenylmethanesulfonyl fluoride (PMSF), 0.1% Igepal CA-630) and dounce homogenized on ice for 20 strokes. The lysate is centrifuged in JA-20 rotor (Beckman) at 20,000 rpm for 30 minutes at 4° C. and the supernatant is brought to 42 ml with lysis buffer. A solution of 50% PEG 8000 in lysis buffer is added slowly to the supernatant to a final concentration of 7.5%. After rocking for 60 minutes at 4° C., the solution is centrifuged in JA-20 rotor (Beckman) at 15,000 rpm for 30 minutes at 4° C. Solid PEG 8000 is then added to the supernatant to a final concentration of 15%. After the rocking and centrifugation is repeated as above, the pellet is resuspended overnight at 4° C. in 10 ml of Buffer A (20 mM K2HPO4, pH 7.4). After […] filtration, the protein solution is applied to a Mono Q 5/5 anion exchange column (Pharmacia). The column is washed for 15 minutes with buffer A at 1 ml/minute, and bound material is eluted with a linear 60-ml gradient over 60 minutes to 1 M KCl. FAS (MW˜270 kD) typically elutes at 0.25 M KCl in three 0.5 ml fractions identified using 4-15% SDS-PAGE with Coomassie G250 stain (Bio-Rad). FAS protein concentration is determined using the Coomassie Plus Protein Assay Reagent (Pierce) according to manufacturer's specifications using BSA as a standard. This procedure results in substantially pure preparations of FAS (>95%) as judged by Coomassie-stained gels.
FAS activity is measured by monitoring the malonyl-CoA dependent oxidation of NADPH spectrophotometrically at OD340 in 96-well plates (Dils et al and Arslanian et al, 1975). Each well contains 2 μg purified FAS, 100 mM K2HPO4, pH 6.5, 1 mM dithiothreitol (Sigma), and 187.5 μM β-NADPH (Sigma). Stock solutions of inhibitors are prepared in DMSO at 2, 1, and 0.5 mg/ml resulting in final concentrations of 20, 10, and 5 μg/ml when 1 μl of stock is added per well. For each experiment, cerulenin (Sigma) is run as a positive control along with DMSO controls, inhibitors, and blanks (no FAS enzyme) all in duplicate.
The assay is performed on a Molecular Devices SpectraMax Plus Spectrophotometer. The plate containing FAS, buffers, inhibitors, and controls are placed in the spectrophotometer heated to 37° C. Using the kinetic protocol, the wells are blanked on duplicate wells containing 100 μl of 100 mM K2HPO4, pH 6.5 and the plate is read at OD340 at 10 sec intervals for 5 minutes to measure any malonyl-CoA independent oxidation of NADPH. The plate is removed from the spectrophotometer and malonyl-CoA (67.4 μM, final concentration per well) and […] (61.8 μM, final concentration per well) are added to each well except to the blanks. The plate is read again as above with the kinetic protocol to measure the malonyl-CoA dependent NADPH oxidation. The difference between the Δ OD340 for the malonyl-CoA dependent and non-malonyl-CoA dependent NADPH oxidation is the specific FAS activity. Because of the purity of the FAS preparation, non-malonyl-CoA dependent NADPH oxidation is negligible.
The concentration of compound yielding 50% inhibition of FAS is the IC50. Graphs of Δ OD340 versus time are plotted by the SOFTmax PRO software (Molecular Devices) for each compound concentration. Computation of linear regression, best-fit line, r^2, and 95% confidence intervals are calculated using Prism Version 3.0 (Graph Pad Software).

OV = assay: XTT cytotoxicity assay (OV); assay type: cell-based; conditions: abbreviation not defined
Procedure: The XTT assay is a non-radioactive alternative for the [^51Cr] release cytotoxicity assay. XTT is a tetrazolium salt that is reduced to a formazan dye only by metabolically active, viable cells. The reduction of XTT is measured spectrophotometrically as OD490-OD650. After 72 hours of incubation, cells are incubated for 4 hours with the XTT reagent as per manufacturer's instructions (Cell Proliferation Kit II (XTT) Roche). Plates are read at OD490 and OD650 on a Molecular Devices SpectraMax Plus Spectrophotometer. Three wells containing the XTT reagent without cells serve as the plate blank. XTT data are reported as OD490-OD650. Averages and standard error of the mean are computed using SOFTmax Pro software (Molecular Dynamics). The IC50 for the compounds is defined as the concentration of drug leading to a 50% reduction in OD490-OD650 compared to controls. The OD490-OD650 are computed by the SOFTmax PRO software (Molecular Devices) for each compound concentration. IC50 is calculated by linear regression, plotting the FAS activity as percent of control versus drug concentrations. Linear regression, best-fit line, r^2, and 95% confidence intervals are determined using Prism Version 3.0 (Graph Pad Software).

[1] = marked (SB), abbreviation not defined, read-out: FAS (IC50) (SB) (converted)

T1 sequence (P49327 whole entry): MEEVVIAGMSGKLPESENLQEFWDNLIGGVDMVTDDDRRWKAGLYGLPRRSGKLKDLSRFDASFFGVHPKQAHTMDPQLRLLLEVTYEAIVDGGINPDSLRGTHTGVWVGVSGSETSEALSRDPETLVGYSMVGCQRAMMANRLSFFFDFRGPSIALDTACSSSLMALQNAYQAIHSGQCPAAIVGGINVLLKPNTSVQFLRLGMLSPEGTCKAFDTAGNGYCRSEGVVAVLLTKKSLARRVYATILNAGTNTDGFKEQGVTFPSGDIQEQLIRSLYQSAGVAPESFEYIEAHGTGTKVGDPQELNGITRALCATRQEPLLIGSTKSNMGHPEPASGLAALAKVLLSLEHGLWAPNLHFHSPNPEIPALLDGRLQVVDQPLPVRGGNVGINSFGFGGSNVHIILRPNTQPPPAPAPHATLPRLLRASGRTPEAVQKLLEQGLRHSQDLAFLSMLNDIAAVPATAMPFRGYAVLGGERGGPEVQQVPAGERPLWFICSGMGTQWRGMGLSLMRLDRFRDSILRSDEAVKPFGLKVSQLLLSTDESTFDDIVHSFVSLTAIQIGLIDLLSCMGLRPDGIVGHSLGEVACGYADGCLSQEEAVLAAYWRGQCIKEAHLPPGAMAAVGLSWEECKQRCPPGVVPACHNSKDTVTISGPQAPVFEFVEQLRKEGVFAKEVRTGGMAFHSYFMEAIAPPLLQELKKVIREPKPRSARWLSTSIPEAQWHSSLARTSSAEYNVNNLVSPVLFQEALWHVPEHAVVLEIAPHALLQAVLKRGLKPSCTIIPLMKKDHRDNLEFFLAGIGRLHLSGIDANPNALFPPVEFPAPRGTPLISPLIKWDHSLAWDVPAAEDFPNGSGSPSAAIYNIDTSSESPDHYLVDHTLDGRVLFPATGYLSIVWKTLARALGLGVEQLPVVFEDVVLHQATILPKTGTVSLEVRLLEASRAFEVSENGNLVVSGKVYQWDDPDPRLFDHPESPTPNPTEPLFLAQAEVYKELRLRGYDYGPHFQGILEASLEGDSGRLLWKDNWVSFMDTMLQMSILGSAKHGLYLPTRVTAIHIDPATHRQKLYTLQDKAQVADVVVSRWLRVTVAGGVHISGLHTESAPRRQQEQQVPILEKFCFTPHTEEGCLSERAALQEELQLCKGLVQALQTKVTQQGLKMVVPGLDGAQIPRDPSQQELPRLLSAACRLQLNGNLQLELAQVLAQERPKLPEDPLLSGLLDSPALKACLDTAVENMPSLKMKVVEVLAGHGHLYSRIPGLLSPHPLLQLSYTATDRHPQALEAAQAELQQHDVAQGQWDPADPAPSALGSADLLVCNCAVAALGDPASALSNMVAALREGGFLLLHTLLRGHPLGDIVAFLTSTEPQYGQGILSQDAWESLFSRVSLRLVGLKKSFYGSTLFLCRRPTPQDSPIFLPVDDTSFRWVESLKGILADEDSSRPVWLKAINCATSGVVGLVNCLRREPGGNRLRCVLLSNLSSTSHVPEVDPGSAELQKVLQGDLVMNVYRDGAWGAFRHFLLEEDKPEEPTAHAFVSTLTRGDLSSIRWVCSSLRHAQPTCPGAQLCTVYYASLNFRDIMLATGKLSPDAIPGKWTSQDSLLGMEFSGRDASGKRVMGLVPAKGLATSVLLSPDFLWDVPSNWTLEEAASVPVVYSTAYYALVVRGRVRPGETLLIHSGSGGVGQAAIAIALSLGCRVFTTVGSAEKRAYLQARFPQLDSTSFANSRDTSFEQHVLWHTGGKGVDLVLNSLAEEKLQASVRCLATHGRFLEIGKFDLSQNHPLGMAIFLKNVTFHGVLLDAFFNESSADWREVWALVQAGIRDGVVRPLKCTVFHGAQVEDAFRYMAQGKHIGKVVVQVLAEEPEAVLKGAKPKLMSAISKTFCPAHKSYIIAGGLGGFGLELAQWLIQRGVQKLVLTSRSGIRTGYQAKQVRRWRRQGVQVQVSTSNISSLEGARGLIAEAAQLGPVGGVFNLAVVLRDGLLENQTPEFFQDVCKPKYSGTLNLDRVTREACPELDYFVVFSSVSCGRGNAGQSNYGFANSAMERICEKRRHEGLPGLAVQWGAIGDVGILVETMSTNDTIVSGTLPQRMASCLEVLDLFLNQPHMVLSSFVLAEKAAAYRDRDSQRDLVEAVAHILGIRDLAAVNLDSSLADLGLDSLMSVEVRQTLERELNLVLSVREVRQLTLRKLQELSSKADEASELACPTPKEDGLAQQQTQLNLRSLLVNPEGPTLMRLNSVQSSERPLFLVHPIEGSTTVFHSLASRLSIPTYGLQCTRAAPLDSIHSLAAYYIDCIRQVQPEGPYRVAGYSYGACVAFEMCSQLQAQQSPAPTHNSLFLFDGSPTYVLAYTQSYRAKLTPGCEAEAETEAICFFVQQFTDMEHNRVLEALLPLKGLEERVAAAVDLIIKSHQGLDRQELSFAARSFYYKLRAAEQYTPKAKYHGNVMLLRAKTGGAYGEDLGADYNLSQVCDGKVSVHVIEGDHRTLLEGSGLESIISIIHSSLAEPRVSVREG

| Structure (SMILES) | IC50 (purified human FAS; [1]) [µM] | IC50 (OV) [µg/mL] | FAS (IC50) (purified human FAS; purified human FAS, OD340) | Solubility remark under FAS (IC50) (purified human FAS) | IC50 (purified human FAS; purified human FAS, OD340, read-out: FAS (IC50) (converted)) [µM] |
| --- | --- | --- | --- | --- | --- |
| CCCCCCCCC1OC(=O)C(OC(=O)OCC)=C1C(=O)OCC (stereo not shown) [Compound 7] | 222 | 13.8 (≈ 38.7 µM) | – | – | – |
| CCCCCCCCC1OC(=O)C(OCC(=O)OCC)=C1C(=O)OCC (stereo not shown) [Compound 3] | 121 | 24.1 (≈ 65.1 µM) | Neg | – | – |
| C=CCOC1=C(C(=O)OCC)C(CCCCCCCC)OC1=O (stereo not shown) [Compound 6] | – | > 80 | Neg | Solubility problems | – |
| CCCCC1OC(=O)C(O)=C1C(=O)OCC (stereo not shown) [Compound 2] | 1230 | 66.1 (≈ 290 µM) | Neg | – | – |
| CCCCCCCCC1OC(=O)C(OC)=C1C(=O)OCC (stereo not shown) [Compound 4] | – | 9.2 (≈ 30.8 µM) | Neg | Solubility problems | – |
| CCCCCCCCC1OC(=O)C(=O)C1C(=O)OCC (stereo not shown) [Compound 1] | – | 18.4 ± 5.8 (≈ 64.7 µM) | – | – | 65.1 |
| CCCCCCCCC1OC(=O)C(OCc2ccccc2)=C1C(=O)OCC (stereo not shown) [Compound 5] | – | 33.9 (≈ 90.5 µM) | Neg | Solubility problems | – |
